Entries after “also recorded” stand apart in the source; their conditions may differ. Like-named read-outs stand apart in the source and are kept apart here.
Legend:
ARPE-19 cells [1] = format: cell-based
Procedure: Cell morphology was visualized using light microscopy. Cell morphology observation using light microscopy permits determination of (i) cell number and density and (ii) whether or not cells in contact with an excipient agent display modified phenotype compared to a non-treated population of cells.
Cell morphology was analyzed in parallel by semi-quantitative scoring ranging from 5 to 1, from basal to lethal phenotype respectively, as shown in FIG. 23.
More specifically, cells were removed from an incubator for examination. Morphological shape of cells was visualized using a light microscope and CCD camera. Every 3 wells of a given concentration was observed through image analysis software. Then, a representative photograph describing the average appearance of cells was saved. The supernatant was either, kept for further predefined experiments to perform, or removed using vacuum-pump.
Resulting semi-quantitative scoring is represented as a function of time course and dose response. Score 5 : wild type phenotype of non-treated cells, 100% confluent adherent cells. This phenotype very much vary following post-seeding time. For example, at confluence ARPE-19 cells at 1 day appear well defined with visible outer membrane and dark grey cytoplasm. After 3 days of confluence, limits between cells become less visible and cells adopt a more hexagonal shape and constitute an epithelium-like uniform dense structure. Score 4: density <100%. Cell shape has changed, some spaces are present between cells, few cells possibly detached. Score 3: 80% <Cell density <40%. Spaces are sometimes present among cells, areas appears confluent while in others, cells detached. General cell shape starts showing non negligible alterations. Score 2: Cell density <50%. Cells adopt exclusively stressed appearance, presence of mass dead floating cells. Score 1: Cell density <10%. Presence of almost exclusively dead cells.
Based on quotation, each condition of the applied compound was given a score which allow to a morphology evolution profile to be prepared, ie. cell morphology as a function of compound concentration and time of exposure. […]

[2] = pH of excipient-containing incubating solutions; format: physicochemical
Procedure: (§1) For each concentration of tested compound, pH and osmolarity parameters were measured.

[3] = Osmolarity of excipient-containing incubating solutions; format: physicochemical
Procedure: Osmolarity was measured using osmometer type 13/13DR from Roebling (Berlin, GR).
as §1

ARPE-19 cells [4] = test: MTT cell viability assay on ARPE-19 cells; conditions: for MTT IC50 (%): ARPE-19 cells, summary Table 3
Source text: Cell viability and cell morphology were examined to evaluate the toxicity of excipients on retinal pigment epithelial cells. The human retina cell line used in these experiments is the ARPE-19 cell line (human adult-derived retinal pigmented epithelial cells). […] They form tight-junctions with transepithelial resistance of monolayers (Dunn K C et al., supra). From a molecular standpoint, it appears that ARPE-19 express a huge pattern of genes similar to those expressed by human RPE from fresh explant which could account for their physiological function (Klimanskaya I. et al., “Derivation and comparative assessment of retinal pigment epithelium from human embryonic stem cells using transcriptomics”, Cloning and Stem Cells, 2004, 6(3):217-45).
ARPE-19 cells are widely used as a retinal model that resemble physiological properties of RPE cells. Similar methods of culturing ARPE-19 cells and cytotoxicity assays can be found in Yeung et al., “Cytotoxicity of triamcinolone on cultured human retinal pigment epithelial cells: comparison with dexamethasone and hydrocortisone”, Jpn J. Ophthalmol, 2004; 48:236-242. Cell viability and cell morphology were examined using conventional colormetric and visual methods. Viability and morphology measurements were obtained at 24 hours, 48 hours, and 72 hours after exposure to an excipient composition.
To assess cell viability, mitochondrial metabolism was quantified through conventional colorometric assays (i.e., the MTT assay). This calorimetric assay utilizes 3-(4,5-dimethylthiazol-2-yl)-2,5-diphenyltetrazolium bromide (MTT) and correlates mitochondrial metabolism and cell viability through measurement of dehydrogenase activity which converts a substrate into crystal. More specifically, the assay measures the activity of living cells through mitochondrial dehydrogenases. When dissolved in culture cell medium, MTT solution appears dark orange. Mitochondrial dehydrogenases of viable cells degrade MTT by cleaving the tetrazolium ring yielding to formation of a purple formazan crystal, which is insoluble in water. Crystals are subsequently dissolved in isopropanol solution. A resulting purple solution is spectrophotometrically measured. Cell viability is relative to amount of formazan and calculated as a percentage of remaining treated compared to non-treated cells.
Results from the MTT assay were expressed as a percentage of cell viability calculated using the following equation: % cell viability=ODtest/ODcontrol×100.
For each experiment, one concentration was performed in triplicate. Each point was spectrophotometrically read twice. Average of readings was calculated, then average from these 3 values was determined.
After 3 experiments were independently completed under the same conditions, a graph was plotted with cell viability expressed as a function of concentration (dose response) and for various incubation period (time course). The IC50 was then estimated based on the graphed data.
More specifically, cell density in 24-multiwell plates was observed on the day of the experiment to check if confluence of the cells was reached. Aliquots of MTT concentrated solutions were removed from a freezer at −20° C. and thawed at room temperature. Cell medium was warmed at 37° C. before use. Appropriated tubes for diluting compounds were prepared. Higher concentrations of each excipient agent was prepared. Serial dilution was then performed in cell medium (DMEM:F12+10% FBS).
Cell culture medium in the 24-well plate was removed using vacuum-pump. Cells were then stimulated with 0.5 ml final volume for each concentration of one given excipient agent. Distribution of the excipient-containing solution was performed using automated pipet-aid in sterile environment (under PSM) or not depending on time of compounds and duration of incubation.
After stimulation, cells were replaced in a CO2 incubator for the required time of exposure.

## OCc1ccccc1 [Benzyl alcohol, benzyl alcohol]
ARPE-19 cells [1]
  Living cells (observation): no living cells survived
ARPE-19 cells [1]; ARPE-19, estimated from morphology data
  IC50 based on cell morphology: about 0.07%
ARPE-19 cells [1]; human
  Morphology limit concentration (%): 0.07%
ARPE-19 cells [1]; human, 24 h, 0.05 %
  Cell morphology score, Mean: 3.3
ARPE-19 cells [1]; human, 24 h, 0.1 %
  Cell morphology score, Mean: 3.0
ARPE-19 cells [1]; human, 24 h, 0.5 %
  Cell morphology score, Mean: 1.0
ARPE-19 cells [1]; human, 24 h, 1 %
  Cell morphology score, Mean: 1.0
ARPE-19 cells [1]; human, 24 h, 2 %
  Cell morphology score, Mean: 1.0
ARPE-19 cells [1]; human, 24 h, […]
  Cell morphology score, Mean: 1.0
ARPE-19 cells [1]; human, 48 h, 0.05 %
  Cell morphology score, Mean: 3.7
ARPE-19 cells [1]; human, 48 h, 0.1 %
  Cell morphology score, Mean: 3.0
ARPE-19 cells [1]; human, 48 h, 0.5 %
  Cell morphology score, Mean: 1.0
ARPE-19 cells [1]; human, 48 h, 1 %
  Cell morphology score, Mean: 1.0
ARPE-19 cells [1]; human, 48 h, 2 %
  Cell morphology score, Mean: 1.0
ARPE-19 cells [1]; human, 48 h, […]
  Cell morphology score, Mean: 1.0
ARPE-19 cells [1]; human, 72 h, 0.05 %
  Cell morphology score, Mean: 3.3
ARPE-19 cells [1]; human, 72 h, 0.1 %
  Cell morphology score, Mean: 3.0
ARPE-19 cells [1]; human, 72 h, 0.5 %
  Cell morphology score, Mean: 1.0
ARPE-19 cells [1]; human, 72 h, 1 %
  Cell morphology score, Mean: 1.0
ARPE-19 cells [1]; human, 72 h, 2 %
  Cell morphology score, Mean: 1.0
ARPE-19 cells [1]; human, 72 h, […]
  Cell morphology score, Mean: 1.0
[2]; 0.05% in culture medium
  pH of excipient dilution: 8
[2]; 0.1% in culture medium
  pH of excipient dilution: 8.1
[2]; 0.5% in culture medium
  pH of excipient dilution: 8
[2]; 1% in culture medium
  pH of excipient dilution: 7.9
[2]; 2% in culture medium
  pH of excipient dilution: 8
[2]; […] in culture medium
  pH of excipient dilution: 7.9
[3]; 0.05% in culture medium
  Osmolarity of excipient dilution: 293 mOsm
[3]; 0.1% in culture medium
  Osmolarity of excipient dilution: 307 mOsm
[3]; 0.5% in culture medium
  Osmolarity of excipient dilution: 347 mOsm
[3]; 1% in culture medium
  Osmolarity of excipient dilution: 398 mOsm
[3]; 2% in culture medium
  Osmolarity of excipient dilution: 493 mOsm
[3]; […] in culture medium
  Osmolarity of excipient dilution: 444 mOsm
ARPE-19 cells [4]
  MTT IC50 (%): 0.07%
ARPE-19 cells [4]; human, 72 h, 0.05 %
  Cell viability, experiments 1, 2, 3: 50.8%

## hydroxypropyl beta-cyclodextrin [Kleptose®]
ARPE-19 cells [1]
  Morphology limit concentration (%): 2.6-3%
[2]; 0.1% in culture medium
  pH of excipient dilution: 7.6
[2]; 0.5% in culture medium
  pH of excipient dilution: 7.6
[2]; 1% in culture medium
  pH of excipient dilution: 7.5
[2]; 5% in culture medium
  pH of excipient dilution: 7.5
[2]; 10% in culture medium
  pH of excipient dilution: 7.5
[2]; 20% in culture medium
  pH of excipient dilution: 7.6
[3]; 0.1% in culture medium
  Osmolarity of excipient dilution: 309 mOsm
[3]; 0.5% in culture medium
  Osmolarity of excipient dilution: 317 mOsm
[3]; 1% in culture medium
  Osmolarity of excipient dilution: 325 mOsm
[3]; 5% in culture medium
  Osmolarity of excipient dilution: 375 mOsm
[3]; 10% in culture medium
  Osmolarity of excipient dilution: 459 mOsm
[3]; 20% in culture medium
  Osmolarity of excipient dilution: 635 mOsm
ARPE-19 cells [4]
  Decrease of cell viability: about 40%
  MTT IC50 (%): 2.2-2.5%
ARPE-19 cells [4]; 0.1% (w/v), 24, 48 and 72 hour time points
  Reduction of cell survival: 20-30%
ARPE-19 cells [4]; 1% (w/v)
  Cell survival (% of the initial value): about 70%
ARPE-19 cells [4]; 5% (w/v), 24 h
  Cell survival: complete disappearance of living cells; also recorded: about 20%
ARPE-19 cells [4]; ARPE-19, all incubation times 24-72 h, estimated from graph
  IC50 (50% cell viability inhibition, MTT): about 2.2%

Reference: patent US20050250737A1, “Therapeutic ophthalmic compositions containing retinal friendly excipients and related methods” (Allergan, Inc., priority 2003, published 2005)
